Holding throughout (experiment): KINOMEscan
Common to all, as to type: binding
Holding throughout (conditions): read-out: % control activity remaining

Assay [1] deals with T1, RSK2(Kin.Dom.2-C-terminal) (Homo sapiens, UniProt P51812).
T1 construct: RSK2(Kin.Dom.2-C-terminal); purchased Eurofins DiscoverX KINOMEscan

The target in a further assay is T2, STK16 (Homo sapiens, UniProt O75716).
T2 construct: purchased Eurofins DiscoverX KINOMEscan

Assay [2] concerns the target T3, JAK2(JH1domain-catalytic) (Homo sapiens, UniProt O60674).
T3 construct: JAK2(JH1domain-catalytic); purchased Eurofins DiscoverX KINOMEscan

The target of a further assay is T4, STK35 (Homo sapiens, UniProt Q8TDR2).
T4 construct: purchased Eurofins DiscoverX KINOMEscan

The next assay addresses T5, SIK (Homo sapiens, UniProt P57059).
T5 construct: purchased Eurofins DiscoverX KINOMEscan

The next assay concerns the target T6, PIK3CA(C420R) (Homo sapiens, UniProt P42336, C420R).
T6 construct: purchased Eurofins DiscoverX KINOMEscan

A further assay addresses T7, CSNK1G3 (Homo sapiens, UniProt Q9Y6M4).
T7 construct: purchased Eurofins DiscoverX KINOMEscan

The target of a further assay is T8, SYK (Homo sapiens, UniProt P43405).
T8 construct: purchased Eurofins DiscoverX KINOMEscan

The target in assay [3] is T9, ABL1(M351T)-phosphorylated (Homo sapiens, UniProt P00519, M351T).
T9 construct: purchased Eurofins DiscoverX KINOMEscan

In a further assay the target is T10, PAK1 (Homo sapiens, UniProt Q13153).
T10 construct: purchased Eurofins DiscoverX KINOMEscan

Another assay has as its target T11, MAP3K2 (Homo sapiens, UniProt Q9Y2U5).
T11 construct: purchased Eurofins DiscoverX KINOMEscan
T11 sequence (Q9Y2U5 1-619): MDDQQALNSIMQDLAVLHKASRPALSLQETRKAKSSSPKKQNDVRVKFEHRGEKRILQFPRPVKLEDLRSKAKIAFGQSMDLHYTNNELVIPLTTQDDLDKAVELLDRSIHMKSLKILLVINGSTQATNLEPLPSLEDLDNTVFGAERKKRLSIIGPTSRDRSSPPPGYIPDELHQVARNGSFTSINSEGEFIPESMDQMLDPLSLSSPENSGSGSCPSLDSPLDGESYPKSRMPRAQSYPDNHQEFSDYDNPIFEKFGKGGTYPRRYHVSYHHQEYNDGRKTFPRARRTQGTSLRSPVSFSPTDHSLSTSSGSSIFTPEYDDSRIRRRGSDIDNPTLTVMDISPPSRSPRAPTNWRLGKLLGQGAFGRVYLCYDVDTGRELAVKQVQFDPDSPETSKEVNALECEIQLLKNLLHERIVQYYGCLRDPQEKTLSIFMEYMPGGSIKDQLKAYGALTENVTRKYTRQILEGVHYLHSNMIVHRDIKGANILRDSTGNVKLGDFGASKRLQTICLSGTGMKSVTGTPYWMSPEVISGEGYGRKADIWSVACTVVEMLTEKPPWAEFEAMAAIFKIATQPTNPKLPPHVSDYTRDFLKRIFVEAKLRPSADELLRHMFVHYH

The target in a further assay is T12, BMPR2 (Homo sapiens, UniProt Q13873).
T12 construct: purchased Eurofins DiscoverX KINOMEscan
T12 sequence (Q13873 27-1038): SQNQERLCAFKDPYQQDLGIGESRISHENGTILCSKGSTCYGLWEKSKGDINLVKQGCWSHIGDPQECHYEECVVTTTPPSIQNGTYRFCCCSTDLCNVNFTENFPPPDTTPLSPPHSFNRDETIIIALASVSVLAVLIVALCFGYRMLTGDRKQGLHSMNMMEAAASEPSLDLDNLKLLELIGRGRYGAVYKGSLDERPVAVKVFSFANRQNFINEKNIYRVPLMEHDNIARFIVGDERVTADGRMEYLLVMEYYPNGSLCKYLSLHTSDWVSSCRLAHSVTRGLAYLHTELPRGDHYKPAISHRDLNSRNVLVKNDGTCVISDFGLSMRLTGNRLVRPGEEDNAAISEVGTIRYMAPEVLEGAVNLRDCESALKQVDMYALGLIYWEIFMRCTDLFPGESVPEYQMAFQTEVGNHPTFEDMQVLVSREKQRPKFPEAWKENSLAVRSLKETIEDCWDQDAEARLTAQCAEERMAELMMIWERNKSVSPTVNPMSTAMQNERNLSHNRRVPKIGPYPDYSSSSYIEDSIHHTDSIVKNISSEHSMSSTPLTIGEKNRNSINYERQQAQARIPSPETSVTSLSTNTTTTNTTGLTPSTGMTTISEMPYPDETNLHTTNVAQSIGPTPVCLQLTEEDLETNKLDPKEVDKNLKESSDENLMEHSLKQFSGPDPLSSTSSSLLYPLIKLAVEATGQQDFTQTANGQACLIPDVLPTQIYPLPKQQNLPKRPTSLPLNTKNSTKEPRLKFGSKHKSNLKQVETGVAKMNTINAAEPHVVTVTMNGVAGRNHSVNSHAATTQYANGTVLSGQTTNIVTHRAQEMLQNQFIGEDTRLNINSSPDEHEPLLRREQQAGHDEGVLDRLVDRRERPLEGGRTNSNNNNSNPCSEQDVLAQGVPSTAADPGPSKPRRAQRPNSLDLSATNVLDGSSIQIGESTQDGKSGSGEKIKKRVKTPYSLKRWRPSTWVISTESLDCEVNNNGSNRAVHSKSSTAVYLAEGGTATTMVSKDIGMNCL

The next assay has as its target T13, MAST1 (Homo sapiens, UniProt Q9Y2H9).
T13 construct: purchased Eurofins DiscoverX KINOMEscan

The target of a further assay is T14, SRPK3 (Homo sapiens, UniProt Q9UPE1).
T14 construct: purchased Eurofins DiscoverX KINOMEscan

The target of the next assay is T15, NEK6 (Homo sapiens, UniProt Q9HC98).
T15 construct: purchased Eurofins DiscoverX KINOMEscan

In another assay the target is T16, AURKA (Homo sapiens, UniProt O14965).
T16 construct: purchased Eurofins DiscoverX KINOMEscan
T16 sequence (O14965 1-403): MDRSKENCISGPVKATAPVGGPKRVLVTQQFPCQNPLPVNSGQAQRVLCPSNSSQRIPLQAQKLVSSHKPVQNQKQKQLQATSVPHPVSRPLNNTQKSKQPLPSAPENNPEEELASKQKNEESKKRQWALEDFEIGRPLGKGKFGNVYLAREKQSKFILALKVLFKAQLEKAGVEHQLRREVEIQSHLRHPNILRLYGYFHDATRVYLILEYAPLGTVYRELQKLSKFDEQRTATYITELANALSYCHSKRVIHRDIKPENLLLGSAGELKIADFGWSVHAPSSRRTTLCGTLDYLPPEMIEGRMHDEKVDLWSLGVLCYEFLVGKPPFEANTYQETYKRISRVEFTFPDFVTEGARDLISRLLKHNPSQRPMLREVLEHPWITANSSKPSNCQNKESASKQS

T5 sequence (P57059 whole entry): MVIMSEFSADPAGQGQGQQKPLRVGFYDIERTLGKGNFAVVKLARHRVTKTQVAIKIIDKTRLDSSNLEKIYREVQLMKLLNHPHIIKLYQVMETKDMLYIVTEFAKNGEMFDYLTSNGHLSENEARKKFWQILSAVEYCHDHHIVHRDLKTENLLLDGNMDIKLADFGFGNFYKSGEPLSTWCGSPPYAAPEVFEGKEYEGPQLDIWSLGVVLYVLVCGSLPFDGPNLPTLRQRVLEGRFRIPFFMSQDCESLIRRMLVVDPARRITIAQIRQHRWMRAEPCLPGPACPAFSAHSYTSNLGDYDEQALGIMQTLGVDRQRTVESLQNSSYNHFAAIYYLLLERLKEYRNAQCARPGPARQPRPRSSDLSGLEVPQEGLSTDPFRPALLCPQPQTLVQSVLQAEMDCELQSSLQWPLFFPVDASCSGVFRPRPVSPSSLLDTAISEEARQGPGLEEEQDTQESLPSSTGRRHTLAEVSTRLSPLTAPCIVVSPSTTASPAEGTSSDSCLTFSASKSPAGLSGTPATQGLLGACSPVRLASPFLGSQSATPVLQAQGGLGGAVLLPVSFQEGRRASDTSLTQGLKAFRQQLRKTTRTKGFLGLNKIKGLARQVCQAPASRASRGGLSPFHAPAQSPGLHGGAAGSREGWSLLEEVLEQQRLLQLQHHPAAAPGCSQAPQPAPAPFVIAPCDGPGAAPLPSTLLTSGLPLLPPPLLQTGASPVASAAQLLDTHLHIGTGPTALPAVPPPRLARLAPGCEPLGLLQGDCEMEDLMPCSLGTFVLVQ
T2 sequence (O75716 whole entry): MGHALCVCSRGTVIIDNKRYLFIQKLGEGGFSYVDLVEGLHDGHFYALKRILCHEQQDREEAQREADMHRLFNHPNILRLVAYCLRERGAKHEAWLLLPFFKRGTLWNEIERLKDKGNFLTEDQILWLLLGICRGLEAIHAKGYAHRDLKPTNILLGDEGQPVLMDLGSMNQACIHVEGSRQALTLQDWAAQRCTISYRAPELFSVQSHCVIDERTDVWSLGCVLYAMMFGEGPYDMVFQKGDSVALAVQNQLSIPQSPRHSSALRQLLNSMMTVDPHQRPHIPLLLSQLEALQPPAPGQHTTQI
T1 sequence (P51812 422-679 limits assumed): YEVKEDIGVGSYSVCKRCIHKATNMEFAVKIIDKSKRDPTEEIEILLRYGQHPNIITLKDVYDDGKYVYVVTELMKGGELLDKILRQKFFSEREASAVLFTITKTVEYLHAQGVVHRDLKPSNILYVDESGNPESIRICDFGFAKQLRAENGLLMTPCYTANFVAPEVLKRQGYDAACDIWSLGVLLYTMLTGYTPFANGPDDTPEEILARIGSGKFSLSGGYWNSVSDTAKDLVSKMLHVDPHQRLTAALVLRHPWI
T15 sequence (Q9HC98 whole entry): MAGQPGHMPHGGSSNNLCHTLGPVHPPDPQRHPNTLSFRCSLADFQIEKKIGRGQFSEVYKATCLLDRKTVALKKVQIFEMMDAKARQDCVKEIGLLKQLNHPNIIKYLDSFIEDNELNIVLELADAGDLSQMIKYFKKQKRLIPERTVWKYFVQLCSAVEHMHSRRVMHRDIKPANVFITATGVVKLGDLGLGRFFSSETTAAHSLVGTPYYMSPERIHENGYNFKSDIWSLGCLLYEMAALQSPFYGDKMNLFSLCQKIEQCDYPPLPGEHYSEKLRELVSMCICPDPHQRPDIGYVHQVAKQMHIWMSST
T3 sequence (O60674 849-1132 limits assumed): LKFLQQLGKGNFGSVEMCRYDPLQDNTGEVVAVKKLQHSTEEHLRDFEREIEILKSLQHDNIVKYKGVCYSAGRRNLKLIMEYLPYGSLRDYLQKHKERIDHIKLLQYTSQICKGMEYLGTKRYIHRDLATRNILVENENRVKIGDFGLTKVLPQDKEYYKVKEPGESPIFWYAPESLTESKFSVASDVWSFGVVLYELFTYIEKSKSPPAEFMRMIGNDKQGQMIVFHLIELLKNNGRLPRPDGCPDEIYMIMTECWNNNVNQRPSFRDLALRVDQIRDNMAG
T14 sequence (Q9UPE1 whole entry): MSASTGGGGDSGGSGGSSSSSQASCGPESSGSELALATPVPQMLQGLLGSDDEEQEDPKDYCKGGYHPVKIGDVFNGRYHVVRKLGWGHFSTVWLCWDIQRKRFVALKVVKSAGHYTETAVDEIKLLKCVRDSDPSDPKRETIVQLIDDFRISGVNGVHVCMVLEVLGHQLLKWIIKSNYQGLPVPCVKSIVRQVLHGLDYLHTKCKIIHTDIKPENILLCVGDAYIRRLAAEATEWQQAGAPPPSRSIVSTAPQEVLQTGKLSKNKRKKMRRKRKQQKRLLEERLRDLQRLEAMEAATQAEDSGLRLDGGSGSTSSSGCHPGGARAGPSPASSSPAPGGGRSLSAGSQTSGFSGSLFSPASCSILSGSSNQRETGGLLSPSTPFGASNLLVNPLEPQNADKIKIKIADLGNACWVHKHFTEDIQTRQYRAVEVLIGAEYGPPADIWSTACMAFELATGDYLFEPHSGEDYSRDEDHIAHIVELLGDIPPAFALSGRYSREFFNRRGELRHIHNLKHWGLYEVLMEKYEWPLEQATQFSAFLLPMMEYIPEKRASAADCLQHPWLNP
T6 sequence (P42336 whole entry C420R): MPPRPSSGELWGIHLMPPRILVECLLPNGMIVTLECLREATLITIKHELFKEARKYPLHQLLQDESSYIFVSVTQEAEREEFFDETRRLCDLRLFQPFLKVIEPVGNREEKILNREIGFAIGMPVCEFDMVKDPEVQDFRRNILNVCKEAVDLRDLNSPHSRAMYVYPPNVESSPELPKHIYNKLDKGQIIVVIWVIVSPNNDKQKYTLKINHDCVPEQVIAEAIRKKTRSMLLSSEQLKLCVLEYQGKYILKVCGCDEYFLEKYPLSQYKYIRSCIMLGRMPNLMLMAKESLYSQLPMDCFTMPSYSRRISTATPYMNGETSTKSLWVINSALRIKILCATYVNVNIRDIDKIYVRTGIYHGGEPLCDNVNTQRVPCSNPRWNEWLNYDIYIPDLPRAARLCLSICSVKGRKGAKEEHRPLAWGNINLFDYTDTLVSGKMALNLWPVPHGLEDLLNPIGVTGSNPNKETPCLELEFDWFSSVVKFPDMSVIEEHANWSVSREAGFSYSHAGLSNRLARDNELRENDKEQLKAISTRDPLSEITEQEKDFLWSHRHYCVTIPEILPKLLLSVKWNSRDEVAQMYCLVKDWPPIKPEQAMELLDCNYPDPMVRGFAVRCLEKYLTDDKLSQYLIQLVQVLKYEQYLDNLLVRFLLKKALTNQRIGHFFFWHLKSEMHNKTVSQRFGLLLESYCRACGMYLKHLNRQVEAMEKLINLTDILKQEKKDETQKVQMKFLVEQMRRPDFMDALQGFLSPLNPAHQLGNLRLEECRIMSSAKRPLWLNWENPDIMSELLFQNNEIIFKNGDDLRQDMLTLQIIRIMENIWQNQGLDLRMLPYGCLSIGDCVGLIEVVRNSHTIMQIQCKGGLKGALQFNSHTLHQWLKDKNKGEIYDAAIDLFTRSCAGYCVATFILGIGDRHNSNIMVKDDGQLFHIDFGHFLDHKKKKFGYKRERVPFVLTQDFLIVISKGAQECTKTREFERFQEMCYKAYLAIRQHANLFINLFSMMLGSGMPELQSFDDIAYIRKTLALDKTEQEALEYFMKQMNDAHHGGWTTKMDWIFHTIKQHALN
T4 sequence (Q8TDR2 whole entry): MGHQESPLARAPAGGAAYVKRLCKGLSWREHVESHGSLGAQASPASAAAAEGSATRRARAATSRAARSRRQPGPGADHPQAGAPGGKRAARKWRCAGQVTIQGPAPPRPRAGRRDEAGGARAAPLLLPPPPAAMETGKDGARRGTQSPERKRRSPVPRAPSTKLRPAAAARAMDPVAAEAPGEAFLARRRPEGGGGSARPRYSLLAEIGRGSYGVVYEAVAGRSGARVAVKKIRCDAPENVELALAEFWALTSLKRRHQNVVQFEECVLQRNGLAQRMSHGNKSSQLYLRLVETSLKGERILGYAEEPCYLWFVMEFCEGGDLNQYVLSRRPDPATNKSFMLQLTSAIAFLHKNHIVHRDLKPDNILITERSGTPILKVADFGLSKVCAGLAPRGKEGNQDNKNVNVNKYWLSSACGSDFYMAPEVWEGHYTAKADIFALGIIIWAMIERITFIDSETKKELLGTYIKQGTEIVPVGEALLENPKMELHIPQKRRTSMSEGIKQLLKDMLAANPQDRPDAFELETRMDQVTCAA
T7 sequence (Q9Y6M4 whole entry): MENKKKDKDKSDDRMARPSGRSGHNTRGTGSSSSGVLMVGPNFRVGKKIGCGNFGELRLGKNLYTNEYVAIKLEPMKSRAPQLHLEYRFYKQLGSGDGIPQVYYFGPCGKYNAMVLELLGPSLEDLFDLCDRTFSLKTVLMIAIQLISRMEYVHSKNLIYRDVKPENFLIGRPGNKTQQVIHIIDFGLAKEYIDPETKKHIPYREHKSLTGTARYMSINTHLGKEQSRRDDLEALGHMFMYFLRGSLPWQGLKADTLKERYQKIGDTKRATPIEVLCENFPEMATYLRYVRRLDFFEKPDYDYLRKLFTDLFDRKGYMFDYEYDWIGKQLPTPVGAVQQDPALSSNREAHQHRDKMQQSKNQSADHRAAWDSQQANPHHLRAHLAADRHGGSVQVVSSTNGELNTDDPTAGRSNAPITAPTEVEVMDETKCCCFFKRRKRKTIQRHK

On to `Clc1cc(NCC2CC2)c2ncc(-c3ccc4[nH]ncc4c3)n2n1` [compound 2, 6-Chloro-N-(cyclopropylmethyl)-3-(1H-indazol-5-yl)imidazo[1,2-b]pyridazin-8-amine], for which the remaining binding at 1 µM in [1] is 89%; on STK16, 100%; in assay [2], 91%; on STK35, 77%; on SIK it was 98%; at PIK3CA(C420R) it was 88%. Besides, the remaining binding at 1 µM at CSNK1G3 stood at 100%; at SYK, 97%; in assay [3] it was 91%; at PAK1, 98%; at MAP3K2 it was 74%; at BMPR2, 96%. Also, the remaining binding at 1 µM was 91% on MAST1, 49% on SRPK3, 99% on NEK6 and 90% at AURKA.
With `O=C(CN1CCOCC1)N[C@H]1CC[C@H](Nc2cc(Cl)nn3c(-c4ccc5[nH]ncc5c4)cnc23)CC1` [compound 26], the remaining binding at 1 µM worked out at 100% in [1]; 83% at STK16; 99% in assay [2]; 97% on STK35; 89% at SIK; 89% at PIK3CA(C420R). Further, the remaining binding at 1 µM at CSNK1G3 was 100%; on SYK it was 100%; in assay [3], 57%; on PAK1, 99%; on MAP3K2 it was 100%; on BMPR2, 100%. Moreover, the remaining binding at 1 µM on MAST1 was found to be 73%; at SRPK3, 66%; at NEK6 it was 100%; on AURKA, 98%.
For `CN1CCC(CNc2cc(Cl)nn3c(-c4cc5nc(Nc6ccccc6)[nH]c5cc4F)cnc23)CC1` [compound 31, 6-Chloro-3-(6-fluoro-2-(phenylamino)-1H-benzo[d]imidazol-5-yl)-N-((1-methylpiperidin-4-yl)methyl)imidazo[1,2-b]pyridazin-8-amine], the remaining binding at 1 µM in assay [1] is 73%; at STK16, 96%; in [2], 100%; on STK35, 100%; on SIK it was 91%; on PIK3CA(C420R), 85%. Also, the remaining binding at 1 µM came to 100% at CSNK1G3; 92% at SYK; 78% in assay [3]; 89% on PAK1; 62% at MAP3K2; 91% at BMPR2. Further, the remaining binding at 1 µM amounted to 63% at MAST1, 100% on SRPK3, 96% at NEK6 and 75% at AURKA.

For the origin of these results see publication PMC6437697 (Journal of Medicinal Chemistry, 2019).
